In assay [1] the test system is NF-kB reporter in Jurkat cells. Kind of assay: NF-kB reporter assay in Jurkat cells stimulated with aCD3/aCD28/PMA. The settings on record: read-out: NF-kB Reporter Assay IC50. Type of assay: cell-based. The protocol: Jurkat cells were maintained in complete RPMI 1640 media supplemented with 10% FBS. Prior to the assay, 120 nL of the serial diluted compound was added in each well of 384-well flat bottom white plate (Corning #3570) by using liquid handler Echo550. Jurkat cells were harvested by centrifugation at 120 g for 10 min and resuspended in fresh RPMI 1640 media without serum. […] (25,000 cells) were seeded in each well of 384-well plate containing compound. After 1 hr incubation at 37° C. in a 5% CO2 incubator, […] of diluted aCD3/aCD28/PMA (final concentration at […] and […], respectively) in RPMI 1640 without serum were added to each well. After incubation at 37° C. in 5% CO2 for 4 hr, […] of One-Glo reagent (Promega #E6120) was added into each well. The plate was left at room temperature for 5 min and the signal was measured on EnVision (PerkinElmer).
Compounds in which an IC50 was not measured are designated as “N/A”.

The target of the next assay is Avi-tagged FL MALT-1 (Homo sapiens (Human), UniProt Q9UDY8). Kind of assay: MALT-1 Fluorogenic Peptide Cleavage Assay (MALT1 inhibition assay). Type of assay: biochemical. The settings on record: Ac-LRSR-AMC peptide substrate, 30 min pre-incubation, 90 min reaction at room temperature. As for the experimental part: Inhibition of MALT1 activity by the presence of small molecules was evaluated using MALT-1 Fluorogenic Peptide Cleavage Assay. The assay utilizes a quenched AMC-labelled peptide that contains the MALT-1 recognition sequence and cleavage site (LRSR). MALT-1 mediated cleavage of the peptide relieves the quenching and leads to an increase in fluorescence at excitation (342 nm) and emission (441 nm).
Avi-tagged FL MALT-1, sequence (Q9UDY8 whole entry): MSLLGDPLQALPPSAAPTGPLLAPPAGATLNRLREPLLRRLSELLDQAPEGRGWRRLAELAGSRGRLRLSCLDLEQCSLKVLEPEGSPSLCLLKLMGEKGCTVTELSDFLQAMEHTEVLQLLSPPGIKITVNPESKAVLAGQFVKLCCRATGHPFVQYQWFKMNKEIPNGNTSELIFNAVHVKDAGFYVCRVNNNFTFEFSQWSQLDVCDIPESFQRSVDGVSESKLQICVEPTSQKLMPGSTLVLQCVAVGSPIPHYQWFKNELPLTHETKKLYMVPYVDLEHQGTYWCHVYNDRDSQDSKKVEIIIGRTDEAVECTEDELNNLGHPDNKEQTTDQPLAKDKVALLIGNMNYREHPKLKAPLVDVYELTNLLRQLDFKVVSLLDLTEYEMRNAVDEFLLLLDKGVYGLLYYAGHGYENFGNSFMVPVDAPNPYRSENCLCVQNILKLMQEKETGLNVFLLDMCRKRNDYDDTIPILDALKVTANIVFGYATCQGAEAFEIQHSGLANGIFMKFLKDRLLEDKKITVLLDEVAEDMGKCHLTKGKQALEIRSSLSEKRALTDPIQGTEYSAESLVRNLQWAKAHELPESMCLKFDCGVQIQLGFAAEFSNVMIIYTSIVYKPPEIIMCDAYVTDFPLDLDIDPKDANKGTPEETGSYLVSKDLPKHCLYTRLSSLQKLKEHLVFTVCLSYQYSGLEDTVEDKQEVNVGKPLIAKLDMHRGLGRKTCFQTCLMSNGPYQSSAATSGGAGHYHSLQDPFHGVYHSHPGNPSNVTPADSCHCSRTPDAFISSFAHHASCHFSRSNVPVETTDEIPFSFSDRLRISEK
The following reagents were obtained commercially and used to prepare standard reagent formulations as further described below: N-2-hydroxyethylpiperazine-N-2-ethane sulfonic acid (HEPES) (1 M, pH 7.5, stored at 4° C.), sodium citrate (stored at RT), tris(2-carboxyethyl) phosphine hydrochloride (T-CEP) (500 mM, stored at −20° C.), ethylenediaminetetraacetic acid (EDTA) (500 mM, stored at RT), dimethylsulfoxide (DMSO, stored at RT), 3-[(3-cholamido-propyl)dimethylammonio]-1-propane sulphate (CHAPS) (stored at RT), dimethylsulfoxide (DMSO), DMSO (Fisher Scientific, stored at RT), Avi-tagged FL MALT-1 (Pharmaron, stored at −70° C.), Ac-LRSR-AMC Peptide (SM Biochemicals, stored at −20° C.)., and ultrapure water (MILLLI-Q©).
The standard reagent formulations used in this assay were prepared and stored as follows. A 1.1 M solution of sodium citrate (161.3 g, 500 mL) was prepared and stored at room temperature. A 10% (w/v) CHAPS solution (2.0 g, 20 mL) was prepared and stored at 4° C. A 500 mM HEPES solution having pH of 6.89 was prepared from 200 mL of a 1 M HEPES solution having a pH of 7.5 using concentrated hydrochloric acid and brought to a final volume of 400 mL with MILLI-Q© H2O. The substrate, 10 mM Ac-LRSR-AMC Peptide, was prepared (10 mg, 1.370 mL DMSO) and stored at −20° C.
Compounds were plated to provide a 2% DMSO final concentration using a ProxiPlate-384 Plus F Black 384-shallow well microplate. The assay-ready plates were equilibrated to room temperature. A reaction buffer (30 mL total volume) was prepared by combining HEPES (pH 6.89, 25 mM, 1.5 mL), sodium citrate (660 mM, 18.0 mL), T-CEP (1 mM, 0.06 mL), EDTA ([…], 0.06 mL), CHAPS (0.05%, 0.15 mL), DMSO (2%, 0.6 mL), and MILLI-Q© H2O (10.23 mL; 9.63 mL when backfilled to 2% DMSO) followed by thorough mixing. DMSO was added only when compound plates had not been DMSO-backfilled to 2%.
MALT-1 was thawed and kept on ice. Peptide substrate was thawed on the bench under ambient conditions. A MALT-1 enzyme working stock was prepared from Avi-tagged FL MALT-1 (40 nM in a prepared reagent volume of 16.5 μL) and the reaction buffer (13.0 mL). MALT1 working stock (5 μL) was added to each well of the microplate. MALT-1 was pre-incubated with compounds for 30 minutes at room temperature.
Two substrate working stocks (Km and 10×Km) were prepared. The 1×Km substrate was prepared from Ac-LRSR-AMC Peptide (50 μM in a prepared reagent volume of 35.0 μL) and the reaction buffer (6.965 mL). The 10×Km substrate was prepared from Ac-LRSR-AMC Peptide (280 μM in a prepared reagent volume of 196.0 μL) and the reaction buffer (6.804 mL). The reaction was initiated by the addition of substrate working stock (5 μL, 50 μM) to Km plates and the addition of substrate working stock (5 μL 280 μM) to 10×Km plates. The plates were covered and incubated on the bench at room temperature for 90 minutes.
Fluorescence intensity was determined using a CLARIOstar microplate reader (BMG LABTECH) using the optimised AMC mode. Before taking readings, a 70% gain was applied on the neutral control well. Compound data were normalised to % Inhibition and used to plot sigmoidal concentration response curves to yield various parameters including IC50.

Where [2] appears, read: Homo sapiens, Jurkat cells, 1 hr compound pre-incubation, aCD3/aCD28/PMA stimulation 4 hr, One-Glo readout.

Where two headings read alike, the source gives them in different places.

Consider `CO[C@@]1(c2ccnc(-n3cc(S(=O)(=O)Nc4cccc5cnn(C)c45)cn3)c2)CCOC1` [Compound I-311], for which the IC50 is < 400 nM in assay [1] (setting [2]) and > 2500 nM against Avi-tagged FL MALT-1.
As for `Cn1ncc2cccc(NS(=O)(=O)c3cnn(-c4cc([C@]5(O)C[C@@H](C)C5)ccn4)c3)c21` [Compound I-271, 1-(4-((1s,3s)-1-hydroxy-3-methylcyclobutyl)pyridin-2-yl)-N-(1-methyl-1H-indazol-7-yl)-1H-pyrazole-4-sulfonamide], the 50% inhibitory concentration (IC50) is < 400 nM in assay [1] (setting [2]) and > 2500 nM against Avi-tagged FL MALT-1.
Consider `Cn1ncc2cccc(NS(=O)(=O)c3cnn(-c4cc(C5(O)CC(F)(F)C5)ccn4)c3)c21` [Compound I-359], for which the IC50 was < 400 nM in assay [1] (setting [2]) and > 2500 nM against Avi-tagged FL MALT-1.
Regarding `O=S(=O)(c1cnn(-c2cc(C(F)(F)F)ccn2)c1)N1CCCn2ncc3cccc1c32` [Compound I-379, 1-((1-(4-(trifluoromethyl)pyridin-2-yl)-1H-pyrazol-4-yl)sulfonyl)-1,2,3,4-tetrahydro-[1,4]diazepino[3,2,1-hi]indazole], the 50% inhibitory concentration (IC50) in assay [1] (Homo sapiens, Jurkat) is > 2500 nM; against Avi-tagged FL MALT-1 it was > 2500 nM.
Regarding `CCc1ccc2cnn(C)c2c1NS(=O)(=O)c1cnn(-c2ccnc(Cl)c2)c1` [Compound I-37, 1-(2-Chloropyridin-4-yl)-N-(6-Ethyl-1-Methyl-1H-Indazol-7-yl)-1H-Pyrazole-4-Sulfonamide], the IC50 is < 400 nM in assay [1] (setting [2]) and ≤ 400 nM on Avi-tagged FL MALT-1.
Regarding `CCc1ccc2cnn(C)c2c1NS(=O)(=O)c1cnn(-c2cc(C(F)(F)F)ccn2)c1` [Compound I-14, N-(6-Ethyl-1-Methyl-1H-Indazol-7-yl)-1-(4-(Trifluoromethyl) Pyridin-2-yl)-1H-Pyrazole-4-Sulfonamide], the 50% inhibitory concentration (IC50) in assay [1] (setting [2]) was < 400 nM; against Avi-tagged FL MALT-1, ≤ 400 nM.
On to `COc1ncc2cnn(C)c2c1NS(=O)(=O)c1cnn(-c2cc(C(F)F)ccn2)c1` [Compound I-126, 1-[4-(difluoromethyl)pyridin-2-yl]-N-{6-methoxy-1-methylpyrazolo[4,3-c]pyridin-7-yl}pyrazole-4-sulfonamide], for which the concentration for half-maximal inhibition (IC50) in assay [1] (setting [2]) is < 400 nM; on Avi-tagged FL MALT-1, ≤ 400 nM.
As for `CCC(O)c1ccnc(-n2cc(S(=O)(=O)Nc3c(OC)ccc4cnn(C)c34)cn2)c1` (single isomer, unassigned) [Compound I-280, 1-(4-(1-hydroxypropyl)pyridin-2-yl)-N-(6-methoxy-1-methyl-1H-indazol-7-yl)-1H-pyrazole-4-sulfonamide], the IC50 in assay [1] (Jurkat cells, 1 hr compound pre-incubation, aCD3/aCD28/PMA stimulation 4 hr, One-Glo readout) was < 400 nM; at Avi-tagged FL MALT-1 it was 400 to 1000 nM.
For `COc1ccc2[nH]nc(C)c2c1NS(=O)(=O)c1cnn(-c2cc(C(F)(F)F)ccn2)c1` [Compound I-81, N-(5-Methoxy-3-Methyl-1H-Indazol-4-yl)-1-(4-(Trifluoromethyl)Pyridin-2-yl)-1H-Pyrazole-4-Sulfonamide], the IC50 in assay [1] (setting [2]) is < 400 nM; against Avi-tagged FL MALT-1 it was ≤ 400 nM.
For the compound `Cn1ncc2cccc(NS(=O)(=O)c3cnn(-c4cnn5c4COCC5)c3)c21` [Compound I-464, N-(1-methylindazol-7-yl)-1-{4H,6H,7H-pyrazolo[3,2-c][1,4]oxazin-3-yl}pyrazole-4-sulfonamide], the IC50 was 400 to 1000 nM in assay [1] (setting [2]) and > 2500 nM on Avi-tagged FL MALT-1.
As to `COc1ccc2cnn(C)c2c1NS(=O)(=O)c1cnn(-c2cc(C(F)(F)F)ccn2)c1` [Compound I-72, N-(6-Methoxy-1-(Methyl-D3)-1H-Indazol-7-yl)-1-(4-(Trifluoromethyl)Pyridin-2-yl)-1H-Pyrazole-4-Sulfonamide], the results for the IC50 (in assay [1] (setting [2]); at Avi-tagged FL MALT-1) were < 400 nM and ≤ 400 nM, respectively.
On to `Cn1ncc2cccc(NS(=O)(=O)c3cnn(-c4cc(C5(O)CCCC5)ccn4)c3)c21` [Compound I-247, 1-[4-(1-hydroxycyclopentyl)pyridin-2-yl]-N-(1-methylindazol-7-yl) pyrazole-4-sulfonamide], for which the values for the IC50 (in assay [1] (setting [2]); at Avi-tagged FL MALT-1) were < 400 nM and > 2500 nM, respectively.
`Cn1ncc2cccc(NS(=O)(=O)c3cnn(-c4cc([C@]5(F)CCOC5)ccn4)c3)c21` [Compound I-335]: the IC50 was < 400 nM in assay [1] (setting [2]) and > 2500 nM on Avi-tagged FL MALT-1.
In the case of `COc1ccc2cnn(C)c2c1NS(=O)(=O)c1cnn(-c2cc(N3CC[C@H](C)C3)ccn2)c1` [Compound I-402], the half-inhibitory concentration (IC50) in assay [1] (setting [2]) is < 400 nM; against Avi-tagged FL MALT-1, > 2500 nM.
On the same counts, the results for `Cn1ncc2cccc(NS(=O)(=O)c3cnn(-c4cc(C5CCOCC5)ccn4)c3)c21` [Compound I-123, N-(1-methyl-1H-indazol-7-yl)-1-(4-(tetrahydro-2H-pyran-4-yl)pyridin-2-yl)-1H-pyrazole-4-sulfonamide] are < 400 nM and > 2500 nM.
On the same counts, the results for `Cn1ncc2cccc(NS(=O)(=O)c3cnn(-c4cc(N5CC(C#N)C5)ccn4)c3)c21` [Compound I-460] are < 400 nM and > 2500 nM.
On the same counts, the results for `[2H]C([2H])([2H])n1ncc2ccc(OC)c(NS(=O)(=O)c3cnn(-c4cc(C5CC5)ccn4)c3)c21` [Compound I-97, 1-(4-Cyclopropylpyridin-2-yl)-N-(6-Methoxy-1-(Methyl-D3)-1H-Indazol-7-yl)-1H-Pyrazole-4-Sulfonamide] are < 400 nM and ≤ 400 nM.
Regarding `Cn1ncc2cccc(NS(=O)(=O)c3cnn(-c4cc(C(F)(F)F)ccn4)c3)c21` [Compound I-15, N-(1-Methyl-1H-Indazol-7-yl)-1-(4-(Trifluoromethyl)Pyridin-2-yl)-1H-Pyrazole-4-Sulfonamide], the 50% inhibitory concentration (IC50) in assay [1] (setting [2]) is < 400 nM; against Avi-tagged FL MALT-1, 400 to 1000 nM.
Regarding `Cn1ncc2cccc(NS(=O)(=O)c3cnn(-c4cccc(C(F)(F)F)n4)c3)c21` [Compound I-13, N-(1-Methyl-1H-Indazol-7-yl)-1-(6-(Trifluoromethyl)Pyridin-2-yl)-1H-Pyrazole-4-Sulfonamide], at Avi-tagged FL MALT-1, the IC50 was > 2500 nM.
At Avi-tagged FL MALT-1, `CCc1ccc2cnn(C)c2c1NS(=O)(=O)c1cnn(-c2ccnc(C(F)(F)F)n2)c1` [Compound I-11, N-(6-Ethyl-1-Methyl-1H-Indazol-7-yl)-1-(2-(Trifluoromethyl) Pyrimidin-4-yl)-1H-Pyrazole-4-Sulfonamide] registered an IC50 of 1000 to 2500 nM.
`CCc1ccc2cnn(C)c2c1NS(=O)(=O)c1cnn(-c2cccc(C(F)(F)F)n2)c1` [Compound I-12, N-(6-Ethyl-1-Methyl-1H-Indazol-7-yl)-1-(2-(Trifluoromethyl) Pyridin-2-yl)-1H-Pyrazole-4-Sulfonamide]: the IC50 against Avi-tagged FL MALT-1 was > 2500 nM.

Values taken from US20240150321A1, “PYRAZOLYLSULFONAMIDE COMPOUNDS AND THEIR USE IN THERAPY” (HOTSPOT THERAPEUTICS, INC., priority 2022, published 2024).
